Assay results: patent US4098706A, “Lubricating agents for thermoplastic materials and process for preparing the same” (Sapchim-Fournier-Cimag, priority 1975, dated 1978)
Where two headings read alike, the source gives them in different places.

Assays:
[1] = Extractibility of the lubricating agents from bottles by solvents simulating food and drink, 49° C; assay type: physicochemical
Description: The lubricating agents according to the invention may be used to lubricate polymers which are intended for the manufacture of packaging and containers for food and drink and its was therefore necessary, in spite of their low toxicity, to determine their extractibility by various solvents simulating food and drink, namely water, ethanol-water 50/50, an aqueous solution of acetic acid (3%) and heptane.
This study was carried out in accordance with the requirements of the Food and Drug Administration (U.S.A.).
The extractions were performed in semi-rigid bottles, prepared with the resins given hereabove.
The ratio of the volume of solvent to the surface of plastic material exposed to extraction was about […], taking into account the geometric characteristics of the bottles.
Heating--: A thermostated oven for the non-inflammable solvents (water and acetic acid) A thermostated water-bath for the inflammable solvents (alcohol and heptane)
This was, in each case, intentionally longer than that which would have given stable maximum values.
The following periods of duration were in fact, observed:
Acetic acid (3%) : 15 days
Aqueous ethanol: 3 to 4 days
The quantity of lubricating agent extracted was determined by thin layer chromatography, by comparison with a standard scale.
A blank trial was carried out with control bottles containing no lubricating agent and a purely negative result was obtained.
The amounts of lubricating agent determined are expressed in μg/ml of extraction solvent or, which is the same, per cm^2 of surface submitted to extraction.

[2] = Tendency for bubbles to appear in the polyvinyl chlorides containing the lubricating agents; assay type: physicochemical
Excerpt: It is known that a release of gaz during preparation of the resin and particularly at the moment of extrusion or blowing is a grave disadvantage when manufacturing objects such as bottles because it may lead to the formation of visible bubbles in the plastic.

[3] = Formula 913, acetic acid (3%), 15 days
[4] = Formula 913, aqueous ethanol, 3 to 4 days
[5] = Formula 914, acetic acid (3%), 15 days
[6] = Formula 914, aqueous ethanol, 3 to 4 days
[7] = Formula 915, acetic acid (3%), 15 days
[8] = Formula 915, aqueous ethanol, 3 to 4 days

In the case of `CCCCCCCCCCCCCCCCCCCCCC(=O)OCCOCCOCCOC(=O)CCCCCCCCCCCCCCCCCCCCC` [Compound 4, Triethyleneglycol dibehenate], the Toxic symptoms (mice; mouse, in vivo, po) is reported as “none”.

For `CCCCCCCCCCCCCCCCCCCCCC(=O)OCCSCCOC(=O)CCCCCCCCCCCCCCCCCCCCC` [Compound 2, Thiodiglycol dibehenate], the “Amount of lubricating agent extracted” value [1, 3] was 0.4 µg/mL, the “Amount of lubricating agent extracted” value [1, 4] was 0.6 µg/mL and the “Amount of lubricating agent extracted” value ([1]; Formula 913, heptane, 3 days) was 1.3 µg/mL. For the same molecule, the “Amount of lubricating agent extracted” value ([1]; Formula 913, water, 15 days) was 0.13 µg/mL, the “Amount of lubricating agent extracted” value [1, 5] was 0.13 µg/mL and the “Amount of lubricating agent extracted” value [1, 6] was 0.13 µg/mL. For the same molecule, the “Amount of lubricating agent extracted” value ([1]; Formula 914, heptane, 3 days) was 0.8 µg/mL, the “Amount of lubricating agent extracted” value ([1]; Formula 914, water, 15 days) was 0.13 µg/mL and the “Amount of lubricating agent extracted” value [1, 7] was 0.13 µg/mL. For the same molecule, the “Amount of lubricating agent extracted” value [1, 8] was 0.13 µg/mL, the “Amount of lubricating agent extracted” value ([1]; Formula 915, heptane, 3 days) was 0.6 µg/mL and the “Amount of lubricating agent extracted” value ([1]; Formula 915, water, 15 days) was 0.13 µg/mL. For the same molecule, the Toxic symptoms (mice; oral, mice) was “none”.

With `CCCCCCCCCCCCCCCCCCCCCC(=O)OCC(C)OC(=O)CCCCCCCCCCCCCCCCCCCCC` (stereo not shown) [Compound 1, 1,2-propanediol dibehenate] the “Amount of lubricating agent extracted” value [1, 7] was 0.13 µg/mL, the “Amount of lubricating agent extracted” value [1, 8] was 0.13 µg/mL and the “Amount of lubricating agent extracted” value ([1]; Formula 915, heptane, 3 days) was 0.26 µg/mL. For the same molecule, the “Amount of lubricating agent extracted” value ([1]; Formula 915, water, 15 days) was 0.13 µg/mL, the “Observations (release of gas)” value [2] was “No release” and the “Temperature at which bubbles appear” value [2] was 250 °C. The Toxic symptoms (mice; mouse, in vivo, po) was “none”.

In the case of `CCCCCCCCCCCCCCCCCCCCCC(=O)OCCCCOC(=O)CCCCCCCCCCCCCCCCCCCCC` [Compound 7, 1,4-butanediol dibehenate], the “Amount of lubricating agent extracted” value [1, 5] is reported as 0.13 µg/mL, the “Amount of lubricating agent extracted” value [1, 6] is reported as 0.13 µg/mL and the “Amount of lubricating agent extracted” value ([1]; Formula 914, heptane, 3 days) is reported as 0.8 µg/mL. For the same molecule, the “Amount of lubricating agent extracted” value ([1]; Formula 914, water, 15 days) was 0.13 µg/mL and the Toxic symptoms (mice; mouse, in vivo, po) was “none”.

With `CCCCCCCCCCCCCCCCCCCCCC(=O)OCC(COC(=O)CCCCCCCCCCCCCCCCCCCCC)OC(=O)CCCCCCCCCCCCCCCCCCCCC` [Compound 8, Glyceryl tribehenate] the “Observations (release of gas)” value [2] was “Slight release”, the “Temperature at which bubbles appear” value [2] was 230 °C and the Toxic symptoms (mice; mouse, in vivo, po) was “none”.

For `CCCCCCCCCCCCCCCCCCCCCC(=O)O` [calcium behenate], the Toxic symptoms (mice; mouse, in vivo, po) was “none”.

With `CCCCCCCCCCCCCCCCCCCCCC(=O)OCC(COC(=O)CCCCCCCCCCCCCCCCCCCCC)(COC(=O)CCCCCCCCCCCCCCCCCCCCC)COC(=O)CCCCCCCCCCCCCCCCCCCCC` [Compound 9, Pentaerythrite tetrabehenate] the “Amount of lubricating agent extracted” value [1, 3] was 0.26 µg/mL, the “Amount of lubricating agent extracted” value [1, 4] was 0.13 µg/mL and the “Amount of lubricating agent extracted” value ([1]; Formula 913, heptane, 3 days) was 0.26 µg/mL. For the same molecule, the “Amount of lubricating agent extracted” value ([1]; Formula 913, water, 15 days) was 0.13 µg/mL, the “Observations (release of gas)” value [2] was “Slight release” and the “Temperature at which bubbles appear” value [2] was 195 °C. The Toxic symptoms (mice; mouse, in vivo, po) was “none”.
